Assay results as given in patent US12098148B2, “Therapeutic compounds” (C4X Discovery Limited, priority 2018, dated 2024).
Like-named read-outs stand apart in the source and are kept apart here.

How the values were obtained:
[1] = test system: NQO1 mRNA in BEAS-2B cells; experiment: Beas2B NQO1 mRNA cell based assay; set-up: species or system human; settings: 24 h compound treatment, increase in NQO1 mRNA vs vehicle (0.1% DMSO), read-out: EC50
In short: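 BEAS-2B human bronchial epithelial cells exposed to compound for 24 h at 37 °C, 5% CO2. NQO1 mRNA measured by one-step TaqMan RT-qPCR on unpurified lysates, normalized to β-actin; relative expression by ΔΔCT method.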

[2] = biological target: human KEAP1 (N-term, residues 321-609) (Homo sapiens, UniProt Q14145); experiment: biochemical;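 note: fluorescence polarization competition assay of Kelch domain binding to NRF2, 12-point 1:3 dilution series from 10 µM, read after 1 h at room temperature, floor 10 nM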
human KEAP1 (N-term, residues 321-609), sequence (Q14145 321-609): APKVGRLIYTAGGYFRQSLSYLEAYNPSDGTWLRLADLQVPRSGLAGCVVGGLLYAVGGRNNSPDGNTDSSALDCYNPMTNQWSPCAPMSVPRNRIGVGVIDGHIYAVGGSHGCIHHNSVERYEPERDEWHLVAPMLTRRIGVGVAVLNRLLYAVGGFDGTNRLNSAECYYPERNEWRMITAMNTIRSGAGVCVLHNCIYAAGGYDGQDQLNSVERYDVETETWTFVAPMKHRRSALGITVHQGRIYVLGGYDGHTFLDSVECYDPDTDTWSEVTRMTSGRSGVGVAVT

| IC50 [2] | Structure (SMILES) | EC50 ([1]; Homo sapiens, BEAS-2B, 24 h) | EC50 [1] |
| --- | --- | --- | --- |
| 5 nM | [2H]C1([2H])CC[C@](C)(C(=O)O)[C@H](C(=O)N2CCc3c(Cl)ccc(OCc4nnn(C)c4C(F)F)c3[C@H]2CN2CC3(CC3)CC2=O)C1 [Example 142, (1S,2R)-2-((S)-5-chloro-8-((5-(difluoromethyl)-1-methyl-1H-1,2,3-triazol-4-yl)methoxy)-1-((6-oxo-5-azaspiro[2.4]heptan-5-yl)methyl)-1,2,3,4-tetrahydroisoquinoline-2-carbonyl)-1-methylcyclohexane-1-carboxylic-4,4-d2 acid] | 0.21 nM |  |
| 6.4 nM | COCCn1nnc(COc2ccc(Cl)c3c2[C@@H](CN2CCCC2=O)N(C(=O)[C@@H]2CCCC[C@]2(C)C(=O)O)CC3)c1C(F)F [Example 145, (1S,2R)-2-((S)-5-chloro-8-((5-(difluoromethyl)-1-(2-methoxyethyl)-1H-1,2,3-triazol-4-yl)methoxy)-1-((2-oxopyrrolidin-1-yl)methyl)-1,2,3,4-tetrahydroisoquinoline-2-carbonyl)-1-methylcyclohexane-1-carboxylic acid] | 4.9 nM |  |
| 5.1 nM | Cc1c(COc2ccc(Cl)c3c2[C@@H](CN2CC4(CC4)CC2=O)N(C(=O)[C@@H]2CCCC[C@]2(C)C(=O)O)CC3)nnn1C [Example 156, (1S,2R)-2-((S)-5-chloro-8-((1,5-dimethyl-1H-1,2,3-triazol-4-yl)methoxy)-1-((6-oxo-5-azaspiro[2.4]heptan-5-yl)methyl)-1,2,3,4-tetrahydroisoquinoline-2-carbonyl)-1-methylcyclohexane-1-carboxylic acid] | 0.29 nM |  |
| 9 nM | Cn1nnc(COc2ccc(Cl)c3c2[C@@H](CN2CC4(CC4)CC2=O)N(C(=O)[C@@H]2CCC[C@]2(C)C(=O)O)CC3)c1C(F)(F)F [Example 153, (1S,2R)-2-((S)-5-chloro-8-((1-methyl-5-(trifluoromethyl)-1H-1,2,3-triazol-4-yl)methoxy)-1-((6-oxo-5-azaspiro [2.4]heptan-5-yl)methyl)-1,2,3,4-tetrahydroisoquinoline-2-carbonyl)-1-methylcyclopentane-1-carboxylic acid] | 7 nM |  |
| 6.3 nM | Cn1nnc(COc2ccc(Cl)c3c2[C@@H](CN2CC4(CC4)CC2=O)N(C(=O)[C@@H]2CCC[C@]2(C)C(=O)O)CC3)c1C(F)F [Example 110, (1S,2R)-2-((S)-5-Chloro-8-((5-(difluoromethyl)-1-methyl-1H-1,2,3-triazol-4-yl)methoxy)-1-((6-oxo-5-azaspiro[2.4]heptan-5-yl)methyl)-1,2,3,4-tetrahydroisoquinoline-2-carbonyl)-1-methylcyclopentane-1-carboxylic acid] | 1.3 nM |  |
| 5.2 nM | Cn1nnc(COc2ccc(Cl)c3c2[C@@H](CN2CC(C(F)(F)F)CC2=O)N(C(=O)[C@@H]2CCCC[C@]2(C)C(=O)O)CC3)c1C(F)F (single isomer, unassigned) [Example 213] |  | 2.2 nM |
| 4.5 nM | Cn1nnc(COc2ccc(Cl)c3c2[C@@H](CN2CC4(CC4)CC2=O)N(C(=O)[C@@H]2OCCC[C@@H]2C(=O)O)CC3)c1C(F)F [Example 140, (2R,3S)-2-((S)-5-chloro-8-((5-(difluoromethyl)-1-methyl-1H-1,2,3-triazol-4-yl)methoxy)-1-((6-oxo-5-azaspiro[2.4]heptan-5-yl)methyl)-1,2,3,4-tetrahydroisoquinoline-2-carbonyl)tetrahydro-2H-pyran-3-carboxylic acid] | 150 nM |  |
| 7.1 nM | Cn1nnc(COc2ccc(Cl)c3c2[C@@H](CN2CCCC2=O)N(C(=O)[C@@H]2CCCC[C@]2(F)C(=O)O)CC3)c1C(F)F [Example 105, (1R,2S)-2-((S)-5-Chloro-8-((5-(difluoromethyl)-1-methyl-1H-1,2,3-triazol-4-yl)methoxy)-1-((2-oxopyrrolidin-1-yl)methyl)-1,2,3,4-tetrahydroisoquinoline-2-carbonyl)-1-fluorocyclohexane-1-carboxylic acid] | 24 nM |  |
| 10 nM | C[C@@H]1CCN(C[C@@H]2c3c(OCc4nnn(C)c4C(F)F)ccc(Cl)c3CCN2C(=O)[C@@H]2CCC[C@]2(C)C(=O)O)C1=O [Example 113, (1S,2R)-2-((1S)-5-Chloro-8-((5-(difluoromethyl)-1-methyl-1H-1,2,3-triazol-4-yl)methoxy)-1-(((R)-3-methyl-2-oxopyrrolidin-1-yl)methyl)-1,2,3,4-tetrahydroisoquinoline-2-carbonyl)-1-methylcyclopentane-1-carboxylic acid] | 240 nM |  |
| 8.4 nM | CC[C@]1(C(=O)O)CCC[C@H]1C(=O)N1CCc2c(Cl)ccc(OCc3nnn(C)c3C(F)F)c2[C@H]1CN1CCCC1=O [Example 118, (1S,2R)-2-((S)-5-chloro-8-((5-(difluoromethyl)-1-methyl-1H-1,2,3-triazol-4-yl)methoxy)-1-((2-oxopyrrolidin-1-yl)methyl)-1,2,3,4-tetrahydroisoquinoline-2-carbonyl)-1-ethylcyclopentane-1-carboxylic acid] | 59 nM |  |
| 8.2 nM | CC[C@]1(C(=O)O)CCCC[C@H]1C(=O)N1CCc2c(Cl)ccc(OCc3nnn(C)c3C(F)F)c2[C@H]1CN1CCCC1=O [Example 117, (1S,2R)-2-((S)-5-chloro-8-((5-(difluoromethyl)-1-methyl-1H-1,2,3-triazol-4-yl)methoxy)-1-((2-oxopyrrolidin-1-yl)methyl)-1,2,3,4-tetrahydroisoquinoline-2-carbonyl)-1-ethylcyclohexane-1-carboxylic acid] | 37 nM |  |
| 9.7 nM | CC(C)n1nnc(COc2ccc(Cl)c3c2[C@@H](CN2CCCC2=O)N(C(=O)[C@@H]2CCC[C@]2(C)C(=O)O)CC3)c1C(F)F [Example 122, (1S,2R)-2-((S)-5-chloro-8-((5-(difluoromethyl)-1-isopropyl-1H-1,2,3-triazol-4-yl)methoxy)-1-((2-oxopyrrolidin-1-yl)methyl)-1,2,3,4-tetrahydroisoquinoline-2-carbonyl)-1-methylcyclopentane-1-carboxylic acid] | 86 nM |  |

Continued, compound first:

| Structure (SMILES) | IC50 [2] | EC50 ([1]; Homo sapiens, BEAS-2B, 24 h) | EC50 [1] |
| --- | --- | --- | --- |
| Cn1cnc(COc2ccc(Cl)c3c2[C@@H](CN2CC4(CC4)CC2=O)N(C(=O)[C@@H]2CCCC[C@]2(C)C(=O)O)CC3)c1 [Example 185, (1S,2R)-2-((S)-5-chloro-8-((1-methyl-1H-imidazol-4-yl)methoxy)-1-((6-oxo-5-azaspiro[2.4]heptan-5-yl)methyl)-1,2,3,4-tetrahydroisoquinoline-2-carbonyl)-1-methylcyclohexane-1-carboxylic acid] | 6.2 nM | 56 nM |  |
| CC1CCN(C[C@@H]2c3c(OCc4cn(C(C)C)nn4)ccc(Br)c3CCN2C(=O)[C@@H]2CCCC[C@@H]2C(=O)O)C1=O (single isomer, unassigned) [Example 74] | 6.8 nM |  | 22 nM |
| C[C@]1(C(=O)O)CCCC[C@H]1C(=O)N1CCc2c(Cl)cc(F)c(OCc3nnn4c3CCC4)c2[C@H]1CN1CC2(CC2)CC1=O [Example 146, (1S,2R)-2-((S)-5-chloro-8-((5,6-dihydro-4H-pyrrolo[1,2-c][1,2,3]triazol-3-yl)methoxy)-7-fluoro-1-((6-oxo-5-azaspiro[2.4]heptan-5-yl)methyl)-1,2,3,4-tetrahydroisoquinoline-2-carbonyl)-1-methylcyclohexane-1-carboxylic acid] | 5.7 nM | 0.23 nM |  |
| O=C(O)[C@H]1CCCC[C@H]1C(=O)N1CCc2c(Br)ccc(OCc3nnc4ccccn34)c2[C@H]1CN1CCCC1=O [Example 64, (1S,2R)-2-((S)-8-[(1,2,4]triazolo[4,3-a]pyridin-3-ylmethoxy)-5-bromo-1-((2-oxopyrrolidin-1-yl)methyl)-1,2,3,4-tetrahydroisoquinoline-2-carbonyl)cyclohexane-1-carboxylic acid] | 6.3 nM | 23 nM |  |
| CCn1cnnc1COc1ccc(Br)c2c1[C@@H](CN1Cc3ccccc3C1=O)N(C(=O)[C@@H]1CCCC[C@@H]1C(=O)O)CC2 [Example 42, (1S,2R)-2-((S)-5-bromo-8-((4-ethyl-4H-1,2,4-triazol-3-yl)methoxy)-1-((1-oxoisoindolin-2-yl)methyl)-1,2,3,4-tetrahydroisoquinoline-2-carbonyl)cyclohexane-1-carboxylic acid] | 7.9 nM | 18 nM |  |
| Cn1nnc(COc2ccc(Cl)c3c2[C@@H](CN2Cc4ccccc4C2=O)N(C(=O)[C@@H]2CCCC[C@@H]2C(=O)O)CC3)c1C(F)F [Example 53, (1S,2R)-2-((S)-5-chloro-8-((5-(difluoromethyl)-1-methyl-1H-1,2,3-triazol-4-yl)methoxy)-1-((1-oxoisoindolin-2-yl)methyl)-1,2,3,4-tetrahydroisoquinoline-2-carbonyl)cyclohexane-1-carboxylic acid] | 6.2 nM | 1.4 nM |  |
| CC(C)c1nc(COc2ccc(Br)c3c2[C@@H](CN2CCCC2=O)N(C(=O)[C@@H]2CCCC[C@@H]2C(=O)O)CC3)no1 [Example 66, (1S,2R)-2-((S)-5-bromo-8-((5-isopropyl-1,2,4-oxadiazol-3-yl)methoxy)-1-((2-oxopyrrolidin-1-yl)methyl)-1,2,3,4-tetrahydroisoquinoline-2-carbonyl) cyclohexane-1-carboxylic acid] | 5.7 nM | 27 nM |  |
| O=C(O)[C@H]1CCCC[C@H]1C(=O)N1CCc2c(Br)ccc(OCc3cccnn3)c2[C@H]1CN1Cc2ccccc2C1=O [Example 30] | 9.2 nM | 17 nM |  |
| Cc1c(COc2c(F)cc(Cl)c3c2[C@@H](CN2CC4(CC4)CC2=O)N(C(=O)[C@@H]2CCCC[C@]2(C)C(=O)O)CC3)nnn1C [Example 143, (1S,2R)-2-((S)-5-chloro-8-((1,5-dimethyl-1H-1,2,3-triazol-4-yl)methoxy)-7-fluoro-1-((6-oxo-5-azaspiro[2.4]heptan-5-yl)methyl)-1,2,3,4-tetrahydroisoquinoline-2-carbonyl)-1-methylcyclohexane-1-carboxylic acid] | 5.2 nM | 0.05 nM |  |
